These are literature values, as cited in patent US20230168217A1, “Test strip for the detection of neutral analytes in a sample” (priority 2020, published 2023).

Several values for one entry are separate records, joined by “and”; a condition that tells them apart may be missing. Equal values may be shown once. Read-outs that look alike come from different tables or passages of the source. A value given as a limit tells only on which side of the number the result lay.

The conditions of data set [1]: previously reported.
Test in data set [2]: not given
This is another data set of the same source.

In the case of `CN1CC[C@]23c4c5ccc(O)c4O[C@H]2[C@@H](O)C=C[C@H]3[C@H]1C5` [morphine], the “concentrations in fatal cases of poisoning” value is on record as “approximately 1.75 µM”.

For `CC(=O)Nc1ccc(O)cc1` [paracetamol], in data set [1], the Protein bound fractions is reported as 20-25%. Besides, the “Serum levels predicting hepatotoxicity” value is ≥ 200 µg/ml and ≥ 1.323 mM in data set [2] (4 hours postingestion); ≥ 6.25 µg/mL and ≥ 43.1 µM in data set [2] (24 h post-ingestion). As for `COc1cccc(C2(O)CCCCC2CN(C)C)c1` (centres unmarked) [tramadol], the “concentrations in fatal cases of poisoning” value is about 3.8 µM.
